Experimental data reported in PMC10144514, “Imageological/Structural Study regarding the Improved Pharmacokinetics by ^68Ga-Labeled PEGylated PSMA Multimer in Prostate Cancer” (Pharmaceuticals, 2023).
pIC50: −log10 of the molar value.

How the values were obtained:
[1] = tested on: PC-3 PIP tumor; test: Micro animal PET/CT and SPECT/CT imaging of PC-3 PIP tumor-bearing mice; type: in vivo
Protocol: PC-3 PIP cells at the logarithmic phase were collected after trypsinization and re-suspended to 5 × 10^7/mL with serum-free medium after removing the supernatant. Mice (6 weeks) were subcutaneously injected with 200 μL of cell suspension, and utilized for small animal PET/CT imaging, SPECT/CT imaging, and biodistribution analysis when tumor volume was ≧100 mm^3. All animal experiments were conducted with the approval of The Southwest Medical University Animal Ethics Committee. Tumor-bearing mice (n = 3) were intravenously injected with 0.1 mL (80μCi) of freshly prepared ^68Ga/^177Lu-labeled PSMA ligands. PET/CT imaging was performed at 0.5/1/2/5 h after injection, and SPECT/CT imaging was performed at 6/24/48 h after injection. The acquired PET/CT and SPECT/CT data were re-constructed by OSEM (ordered subsets expectation maximization).

[2] = In vitro stability of radiotracers in FBS (radiochemical purity by HPLC); type: in vitro ADME; conditions: incubated in FBS at 37 °C for 2 h
Protocol: (§1) All solvents and reagents were purchased from Sigma-Aldrich (Shanghai, China) and Shanghai yuanye Bio-Technology (Shanghai, China). DOTA-(1P-PEG4), DOTA-(2P-PEG0), DOTA(DOTA-(2P-PEG4), and (DOTA-(2P-PEG4)2 were synthesized by Bidepharm (Shanghai, China), and characterized by HPLC and mass spectrometry. Radio-HPLC analyses of the radiotracers were carried out using C18 column (5 µm, 4.6 × 250 mm, ZORBAX Eclipse Plus, Agilent, Milford, MA, USA), and analytical grade solvent by solvent A (0.1% trifluoroacetic acid (TFA) in water) and solvent B (0.1% TFA in acetonitrile). A ^68Ge/^68Ga generator was purchased from ITM Medical Isotopes (Munich, Germany). The γ count was measured by a CAPRAC-t γ counter containing a NaI crystal (CAPINTEC, Ramsey, NJ, USA). All in vitro experiments regarding PSMA and the determination of radiotracers’ stability were performed in triplicate to ensure reproducibility.
(§2) […] was eluted from a ^68Ge/^68Ga generator with 0.05M HCl (≈200 MBq/mL). […]
(§3) A total of four kinds of PSMA-related ligands were designed and synthesized. The radiochemical purity of these four ^68Ga/^177Lu-labeled compounds was detected by HPLC (Figure 1) and thin-layer chromatography (Figure S5). […]

[3] = tested on: PC-3 PIP cells; test: Cellular uptake and 2-PMPA blocking in PC-3 PIP cells; type: cell-based
Protocol: Cellular experiments in this study were performed in the PC-3 PIP cell line. PC-3 PIP, a PCa cell line with stably high-expressed PSMA [28], was a gift from Professor Chen from the National University of Singapore. Cells were cultured in ATCC 1640 medium with 10% of FBS, L-glutamine, and antibiotic (37 °C, 5% CO2).
PC-3 PIP cells were cultured in ATCC 1640 medium containing 10% FBS. When cultured to 70–80% confluency, cells were collected and seeded in a 24-well plate. After culturing overnight (37 °C, 5% CO2), the culture medium was replaced by serum-free ATCC 1640 medium (serum-starved cell culture) for 0.5 h. Then nuclide-labeled compounds were added into wells (50 µL, 1 μCi/well) with gentle shakes to ensure they were well distributed. After incubating for 30 min/60 min/120 min, cells at each time point were digested by NaOH and measured by the γ-counter to calculate the uptake rate (n ≥ 3). Cells were co-incubated with glycine (pH = 2.8) for 1 min, and then the procedure above was repeated after dissolving in 1 M NaOH (procedure for internalization). Cells were incubated with PSMA inhibitor (2-PMPA) for blocking assays for 15 min before adding the labeled ligands.

[4] = target: T1, human albumin (Homo sapiens, UniProt P02768); test: In vitro determination of albumin binding (ultrafiltration); type: in vitro ADME; conditions: human serum albumin 20 mg/mL, 37 °C, ^68Ga-labeled
T1 construct: purchased Sigma-Aldrich (Shanghai, China) or Shanghai yuanye Bio-Technology (general reagents statement; not tied to albumin)
T1 sequence (P02768 25-609): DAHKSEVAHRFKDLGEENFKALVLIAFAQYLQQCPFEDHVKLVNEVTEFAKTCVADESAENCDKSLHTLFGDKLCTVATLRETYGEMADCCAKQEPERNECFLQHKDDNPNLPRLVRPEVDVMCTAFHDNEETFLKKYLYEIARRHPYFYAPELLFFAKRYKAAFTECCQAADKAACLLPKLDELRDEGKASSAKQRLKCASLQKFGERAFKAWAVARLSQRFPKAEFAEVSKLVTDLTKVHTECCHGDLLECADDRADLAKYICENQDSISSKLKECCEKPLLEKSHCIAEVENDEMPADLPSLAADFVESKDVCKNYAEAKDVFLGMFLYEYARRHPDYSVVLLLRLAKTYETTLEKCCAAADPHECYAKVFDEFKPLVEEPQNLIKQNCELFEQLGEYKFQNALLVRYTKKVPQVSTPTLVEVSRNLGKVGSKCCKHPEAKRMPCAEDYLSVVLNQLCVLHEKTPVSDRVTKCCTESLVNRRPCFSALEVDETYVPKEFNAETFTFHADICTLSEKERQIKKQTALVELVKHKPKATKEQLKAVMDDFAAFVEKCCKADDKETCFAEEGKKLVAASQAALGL
Protocol: The albumin-binding rate of each ligand was measured by the γ-counter. ^68Ga-labeled PSMA ligand (≈50 μCi) was added into the human albumin solution (20 mg/mL). The mixture was incubated in a water bath (37 °C) for 30 min and 120 min, followed by ultrafiltration centrifugation for 5 min (10 kD, 10,000 rpm). The compound activities of the uncombined albumin or those retained on the filter membrane were measured by the γ counter, according to which the percentage of serum albumin binding activity (retained on the filter membrane) to total activity was calculated.
The calculation was based on the following equation: (counting of albumin retained on membrane − background counting)/(counting of albumin retained on membrane + counting of filtered liquid − 2* background counting) × 100%, and the average of three sets of data was taken as the final result.

[5] = Lipophilicity determination (n-octanol/PBS partition); type: physicochemical; conditions: ^68Ga-labeled ligand
Protocol: Nuclide-labeled ligand (20 μL, ≈50 μCi), PBS (480 μL), and saturated n-octanol (500 μL) were added in a 1 mL EP tube, followed by vortex. Then the mixture was centrifuged at a low temperature (−5 °C) for 10 min until the mixture was separated into the upper and the lower layers. Liquids in the two phases were transferred into EP tubes and measured by the γ-counter. The calculation of the LogP value was based on the following equation: LogP = Lg [(counting of the organic phase − background counting)/(counting of the aqueous phase − background counting)]

[6] = In vitro stability of radiotracers in PBS (radiochemical purity by HPLC); type: physicochemical; conditions: incubated in PBS at 37 °C for 2 h
Protocol: as §1, §2, §3

[7] = target: T2, PSMA (PC-3 PIP cells) (Homo sapiens, UniProt Q04609); test: Competitive binding IC50 against [^68Ga]Ga-PSMA-11 in PC-3 PIP cells; conditions: competition with [^68Ga]Ga-PSMA-11, 1 h
T2 construct: expressed in transfected cells; host or cells: PC-3 PIP cells (PC-3 stably expressing PSMA; gift from Professor Chen, National University of Singapore)
T2 sequence (Q04609 whole entry): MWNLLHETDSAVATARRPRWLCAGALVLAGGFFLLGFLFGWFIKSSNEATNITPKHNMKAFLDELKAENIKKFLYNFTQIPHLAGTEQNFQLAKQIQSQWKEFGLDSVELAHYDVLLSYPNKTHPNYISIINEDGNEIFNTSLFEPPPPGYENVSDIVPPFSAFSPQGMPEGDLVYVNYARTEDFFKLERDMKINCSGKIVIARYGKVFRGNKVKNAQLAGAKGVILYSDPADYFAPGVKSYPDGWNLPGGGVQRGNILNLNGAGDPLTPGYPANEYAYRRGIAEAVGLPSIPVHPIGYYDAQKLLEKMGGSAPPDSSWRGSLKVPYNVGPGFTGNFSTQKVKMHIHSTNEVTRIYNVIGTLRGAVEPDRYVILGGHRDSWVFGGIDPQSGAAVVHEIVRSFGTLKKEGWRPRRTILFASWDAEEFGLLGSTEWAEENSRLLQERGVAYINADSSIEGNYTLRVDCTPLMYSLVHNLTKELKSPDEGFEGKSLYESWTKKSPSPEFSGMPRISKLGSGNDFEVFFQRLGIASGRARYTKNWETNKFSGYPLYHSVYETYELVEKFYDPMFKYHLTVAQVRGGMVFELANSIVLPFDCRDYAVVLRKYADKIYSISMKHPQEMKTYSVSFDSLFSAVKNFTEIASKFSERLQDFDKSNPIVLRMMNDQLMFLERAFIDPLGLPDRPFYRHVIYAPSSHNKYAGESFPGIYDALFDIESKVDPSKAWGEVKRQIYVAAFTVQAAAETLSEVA
Protocol: PC-3 PIP cells were seeded in 96-well plates in triplicate and cultured to a density of 5* × 10^5 cells per well. [^68Ga]Ga-PSMA-11 was added into wells after serum-starved cell culture (1 μCi/well, ≈171 nmol/L), after which different PBS-diluted competitive ligands were added in wells and cultured for another hour. Then cells were washed with cold PBS twice removing the supernatant. Cells were collected and transferred to test tubes for counting by the γ-counter. IC50 values were analyzed and confirmed by nonlinear regression on GraphPad Prism Software.

[8] = tested on: PC-3 PIP tumor; test: Biodistribution in PC-3 PIP tumor-bearing mice; type: in vivo; conditions: 2 h p.i.
Protocol: PC-3 PIP cells at the logarithmic phase were collected after trypsinization and re-suspended to 5 × 10^7/mL with serum-free medium after removing the supernatant. Mice (6 weeks) were subcutaneously injected with 200 μL of cell suspension, and utilized for small animal PET/CT imaging, SPECT/CT imaging, and biodistribution analysis when tumor volume was ≧100 mm^3. All animal experiments were conducted with the approval of The Southwest Medical University Animal Ethics Committee.
PC-3 PIP tumor-bearing mice (n > 3) were divided into four groups and respectively injected with 0.1 mL (70μCi) of [^68Ga]Ga-DOTA-(1P-PEG4), [^68Ga]Ga-DOTA-(2P-PEG0), [^68Ga]Ga-DOTA-(2P-PEG4), and [^68Ga]Ga-DOTA-(2P-PEG4)2 through the caudal vein. Mice were executed at 30 min/60 min/120 min after injection. Heart, blood, lung, liver, stomach, spleen, kidney, muscle, intestine, bone, salivary gland, and tumor were collected and detected by the γ-counter. The fitted curve was calculated on the basis of standard diluted samples of the initial dosage, and then the percentage of injected dose per gram of tissue (ID%/g) was calculated.

| kidney uptake on SPECT/CT imaging at 6 h ([1]; ^177Lu-labeled, SPECT/CT, 6 h after injection) | Compound | tumor uptake on PET/CT imaging ([1]; ^68Ga-labeled, PET/CT at 0.5/1/2/5 h after injection) | radiochemical purity (FBS) at 2 h [2] | uptake rate after co-incubation with PSMA inhibitor 2-PMPA ([3]; PC-3 PIP cells blocked by 2-PMPA, uptake at one hour (Figure 3C)) | 2 h cellular uptake rate ([3]; PC-3 PIP cells, 2 h, ^68Ga-labeled) | albumin-binding rate (0.5 h) ([4]; 0.5 h) | albumin-binding rate (2 h) ([4]; 2 h) | logP [5] | radiochemical purity (PBS) at 2 h [6] | pIC50 [7] | 2 h blood uptake value [8] |
| --- | --- | --- | --- | --- | --- | --- | --- | --- | --- | --- | --- |
| detectable kidney uptake at 6 h | O=C(O)CC[C@H](NC(=O)N[C@@H](CCCCNC(=O)[C@H](Cc1ccc2ccccc2c1)NC(=O)[C@H]1CC[C@H](CNC(=O)CN2CCN(CC(=O)O)CCN(CC(=O)O)CCN(CC(=O)O)CC2)CC1)C(=O)O)C(=O)O [[^177Lu]Lu-PSMA-617, metal not drawn, reference compound] | – | – | – | – | – | – | – | – | – | – |
| – | O=C(O)CC[C@H](NC(=O)N[C@@H](CCCCNC(=O)[C@@H](CCC(=O)NCCCC[C@@H](NC(=O)N[C@H](CCC(=O)O)C(=O)O)C(=O)O)NC(=O)CN1CCN(CC(=O)O)CCN(CC(=O)O)CCN(CC(=O)O)CC1)C(=O)O)C(=O)O [[^68Ga]Ga-DOTA-(2P-PEG0), metal not drawn] | began to decline at 2 h after injection | 95.21% | 1.00 ± 0.16% | 8.39 ± 3.65% | 54.84% | 54.29% | -2.84 | 95.78% | 6.34 | 2.78 ± 1.80 ID%/g |
